The values below come from patent publication US12152038B2, “Vasopressin receptor antagonists and products and methods related thereto” (Neumora Therapeutics, Inc., priority 2017, dated 2024).

Each structure is given as a SMILES string. Where two headings read alike, the source gives them in different places.

The series has as its target T1, MDR1 (P-glycoprotein) (Homo sapiens, UniProt P08183).
T1 construct: host or cells: MDCK (MDR1-MDCK; wild-type MDCK as comparator)
In words: MDR1-MDCK permeability and efflux assay (Papp, efflux ratio, effective efflux ratio). Format: in vitro ADME. To be noted: dog; for Papp A→B at 1 h, 10 μM: pH 7.4, read-out: Papp AB MDR1. Put shortly: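 Confluent WT or MDR1-MDCK monolayers (3-day culture) dosed with 10 μM compound, 0.1% DMSO, in HBSS/25 mM HEPES pH 7.4, A>B and B>A, 1 h at 37 °C; LC-MS/MS quantitation. Papp from acceptor/donor ratio; efflux ratio = Papp B>A/A>B; EER = ER(MDR1)/ER(WT).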

The mark [1] stands for this setting: MDCK-MDR1, pH 7.4, ER(MDR1-MDCK)/ER(wild-type MDCK), read-out: EER (Effective Efflux Ratio).
[2] abbreviates: MDCK-MDR1, pH 7.4, Papp B>A/Papp A>B, MDR1-MDCK cells, read-out: ER MDR1 (Efflux Ratio).

T1 sequence (P08183 whole entry): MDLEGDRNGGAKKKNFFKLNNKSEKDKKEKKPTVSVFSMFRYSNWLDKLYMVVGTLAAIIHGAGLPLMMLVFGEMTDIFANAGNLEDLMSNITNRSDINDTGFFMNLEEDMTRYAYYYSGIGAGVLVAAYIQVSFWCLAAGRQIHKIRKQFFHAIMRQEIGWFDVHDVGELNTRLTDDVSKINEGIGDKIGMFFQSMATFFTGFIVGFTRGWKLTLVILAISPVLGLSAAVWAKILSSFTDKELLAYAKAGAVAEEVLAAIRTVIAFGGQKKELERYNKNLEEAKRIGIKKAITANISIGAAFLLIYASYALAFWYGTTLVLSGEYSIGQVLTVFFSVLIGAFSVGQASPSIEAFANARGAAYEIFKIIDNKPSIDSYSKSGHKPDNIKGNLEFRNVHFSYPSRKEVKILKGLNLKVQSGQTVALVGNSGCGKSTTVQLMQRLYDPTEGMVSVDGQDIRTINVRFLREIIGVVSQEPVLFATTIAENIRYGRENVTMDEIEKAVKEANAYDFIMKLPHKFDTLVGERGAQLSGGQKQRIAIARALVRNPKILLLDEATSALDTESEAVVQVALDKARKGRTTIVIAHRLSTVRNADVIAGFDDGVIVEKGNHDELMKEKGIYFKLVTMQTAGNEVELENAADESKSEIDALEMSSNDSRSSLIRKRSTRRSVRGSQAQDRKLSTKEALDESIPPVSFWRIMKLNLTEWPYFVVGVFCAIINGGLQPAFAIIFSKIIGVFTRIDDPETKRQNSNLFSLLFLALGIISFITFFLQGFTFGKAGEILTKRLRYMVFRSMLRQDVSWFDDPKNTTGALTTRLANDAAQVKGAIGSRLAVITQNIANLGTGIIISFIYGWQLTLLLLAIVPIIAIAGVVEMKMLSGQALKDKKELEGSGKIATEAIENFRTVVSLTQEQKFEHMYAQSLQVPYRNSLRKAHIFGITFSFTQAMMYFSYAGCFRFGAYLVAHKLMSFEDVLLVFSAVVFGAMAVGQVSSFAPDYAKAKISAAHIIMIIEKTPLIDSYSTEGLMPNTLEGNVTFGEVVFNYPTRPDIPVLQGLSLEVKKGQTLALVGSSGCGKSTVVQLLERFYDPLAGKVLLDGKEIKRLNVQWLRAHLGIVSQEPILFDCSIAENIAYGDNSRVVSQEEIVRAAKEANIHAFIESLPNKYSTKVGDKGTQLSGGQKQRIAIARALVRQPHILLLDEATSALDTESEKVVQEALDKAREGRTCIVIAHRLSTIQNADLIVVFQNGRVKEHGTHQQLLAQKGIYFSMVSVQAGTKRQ

As for `Cc1nccc(N2CC3(CN(C(=O)N4c5ccc(Cl)cc5OCC4C)C3)C2)n1` (stereo not drawn) [21-8], the efflux ratio at 1 h, 10 μM lay in the range of 2 to 3 under setting [1] and 1 to 2 under setting [2]. Further, the Papp A→B at 1 h, 10 μM (MDR1-MDCK cells) is more than 20 ×10⁻⁶ cm/s.

Turning to `Cc1cnnc(N2CC3(CN(C(=O)N4c5ccc(Cl)cc5OCC4C)C3)C2)c1` (stereo not drawn) [21-4], the efflux ratio at 1 h, 10 μM reads like this: under setting [1], more than 3; under setting [2], more than 3. For the same compound, the Papp A→B at 1 h, 10 μM (MDR1-MDCK cells) is more than 20 ×10⁻⁶ cm/s.

In the case of `Cc1cncc(N2CC3(CN(C(=O)N4CCOc5cc(Cl)ccc54)C3)C2)n1` [1-22], the efflux ratio at 1 h, 10 μM was in the range of 1 to 2 under setting [1] and 1 to 2 under setting [2]. In addition, the Papp A→B at 1 h, 10 μM (MDR1-MDCK cells) is more than 20 ×10⁻⁶ cm/s.

With `CC1COc2cc(Cl)ccc2N1C(=O)N1CC2(C1)CN(c1nn(C)c3ncccc13)C2` (single isomer, unassigned) [20-15-B], the efflux ratio at 1 h, 10 μM under setting [1] lay in the range of 1 to 2 and the efflux ratio at 1 h, 10 μM under setting [2] is less than 1. Moreover, the Papp A→B at 1 h, 10 μM (MDR1-MDCK cells) was more than 20 ×10⁻⁶ cm/s.

With `CC1COc2cc(Cl)ccc2N1C(=O)N1CC2(C1)CN(c1ncncc1F)C2` (stereo not drawn) [21-5], the efflux ratio at 1 h, 10 μM runs as follows: under setting [1], less than 1; under setting [2], 1 to 2. Besides, the Papp A→B at 1 h, 10 μM (MDR1-MDCK cells) is more than 20 ×10⁻⁶ cm/s.

Regarding `O=C(N1CC2(C1)CN(c1ccc(F)cn1)C2)N1CCOc2cc(F)ccc21` [1-64], the efflux ratio at 1 h, 10 μM by setting is: under setting [1], 1 to 2; under setting [2], 1 to 2. Further, the Papp A→B at 1 h, 10 μM (MDR1-MDCK cells) was more than 20 ×10⁻⁶ cm/s.

Consider `O=C(N1CC2(C1)CN(c1cc(F)ccn1)C2)N1CCOc2cc(Cl)ccc21` [1-70], for which the efflux ratio at 1 h, 10 μM is, setting by setting: under setting [1], less than 1; under setting [2], 1 to 2. The Papp A→B at 1 h, 10 μM (MDR1-MDCK cells) is more than 20 ×10⁻⁶ cm/s.

Regarding `CC1COc2cc(Cl)ccc2N1C(=O)N1CC2(C1)CN(c1ccccn1)C2` (stereo not drawn) [1-60], the efflux ratio at 1 h, 10 μM under setting [1] was less than 1 and the efflux ratio at 1 h, 10 μM under setting [2] was less than 1. Besides, the Papp A→B at 1 h, 10 μM (MDR1-MDCK cells) was more than 20 ×10⁻⁶ cm/s.

For `CC1COc2cc(Cl)ccc2N1C(=O)N1CC2(C1)CN(c1noc3ccccc13)C2` (stereo not drawn) [21-1, (6-(benzo[d]isoxazol-3-yl)-2,6-diazaspiro[3.3]heptan-2-yl)(7-chloro-3-methyl-2,3-dihydro-4H-benzo[b][1,4]oxazin-4-yl)methanone], the efflux ratio at 1 h, 10 μM reads like this: under setting [1], 2 to 3; under setting [2], 1 to 2. The Papp A→B at 1 h, 10 μM (MDR1-MDCK cells) was 7 to 10 ×10⁻⁶ cm/s.

As to `CC1COc2cc(Cl)ccc2N1C(=O)N1CC2(C1)CN(c1ncc(F)cn1)C2` (single isomer, unassigned) [18-2-B], the efflux ratio at 1 h, 10 μM under setting [1] was less than 1 and the efflux ratio at 1 h, 10 μM under setting [2] is less than 1. Also, the Papp A→B at 1 h, 10 μM (MDR1-MDCK cells) is more than 20 ×10⁻⁶ cm/s.

Consider `CC1COc2cc(F)ccc2N1C(=O)N1CC2(C1)CN(c1cnccn1)C2` (single isomer, unassigned) [1-65-B], for which the efflux ratio at 1 h, 10 μM runs as follows: under setting [1], less than 1; under setting [2], 1 to 2. Where the note is “MDR1-MDCK cells”, the Papp A→B at 1 h, 10 μM is more than 20 ×10⁻⁶ cm/s.

On to `COc1ccc2c(c1)OCC(C)N2C(=O)N1CC2(C1)CN(c1ccc(F)cn1)C2` (single isomer, unassigned) [1-59-B], for which the efflux ratio at 1 h, 10 μM fell in the range of 1 to 2 under setting [1] and 1 to 2 under setting [2]. Also, the Papp A→B at 1 h, 10 μM (MDR1-MDCK cells) was more than 20 ×10⁻⁶ cm/s.

Turning to `CC1COc2cc(Cl)ccc2N1C(=O)N1CC2(C1)CN(c1nccc(C(F)(F)F)n1)C2` (stereo not drawn) [21-10], the efflux ratio at 1 h, 10 μM by setting is: under setting [1], 1 to 2; under setting [2], 1 to 2. In addition, the Papp A→B at 1 h, 10 μM (MDR1-MDCK cells) lay in the range of 10 to 20 ×10⁻⁶ cm/s.

With `Cc1cncc(N2CC3(CN(C(=O)N4c5ccc(Cl)cc5OCC4C)C3)C2)n1` (stereo not drawn) [21-3], the efflux ratio at 1 h, 10 μM is, setting by setting: under setting [1], 1 to 2; under setting [2], 1 to 2. Where the note is “MDR1-MDCK cells”, the Papp A→B at 1 h, 10 μM is more than 20 ×10⁻⁶ cm/s.

For `CC1COc2cc(Cl)ccc2N1C(=O)N1CC2(C1)CN(c1ccncn1)C2` (stereo not drawn) [21-6], the efflux ratio at 1 h, 10 μM reads like this: under setting [1], 2 to 3; under setting [2], less than 1. In addition, where the note is “MDR1-MDCK cells”, the Papp A→B at 1 h, 10 μM is more than 20 ×10⁻⁶ cm/s.

As to `O=C(N1CC2(C1)CN(c1cccnc1)C2)N1CCOc2cc(Cl)ccc21` [1-72], the efflux ratio at 1 h, 10 μM was 1 to 2 under setting [1] and less than 1 under setting [2]. Also, the Papp A→B at 1 h, 10 μM (MDR1-MDCK cells) was more than 20 ×10⁻⁶ cm/s.

Take `CC1COc2cc(Cl)ccc2N1C(=O)N1CC2(C1)CN(c1cnccn1)C2` (single isomer, unassigned) [1-58-B]: the efflux ratio at 1 h, 10 μM under setting [1] fell in the range of 1 to 2 and the efflux ratio at 1 h, 10 μM under setting [2] lay within 1 to 2. The Papp A→B at 1 h, 10 μM (MDR1-MDCK cells) was more than 20 ×10⁻⁶ cm/s.

On to `Cc1cnc(N2CC3(CN(C(=O)N4c5ccc(Cl)cc5OCC4C)C3)C2)nc1` (single isomer, unassigned) [20-13-B], for which the efflux ratio at 1 h, 10 μM under setting [1] fell in the range of 1 to 2 and the efflux ratio at 1 h, 10 μM under setting [2] was 1 to 2. For the same compound, the Papp A→B at 1 h, 10 μM (MDR1-MDCK cells) is more than 20 ×10⁻⁶ cm/s.

For `CC1COc2cc(Cl)ccc2N1C(=O)N1CC2(C1)CN(c1ccccn1)C2` (single isomer, unassigned) [1-60-B], the efflux ratio at 1 h, 10 μM under setting [1] fell in the range of 1 to 2 and the efflux ratio at 1 h, 10 μM under setting [2] is less than 1. Also, the Papp A→B at 1 h, 10 μM (MDR1-MDCK cells) is more than 20 ×10⁻⁶ cm/s.

As for `O=C(N1CC2(C1)CN(c1cccnn1)C2)N1CCOc2cc(Cl)ccc21` [1-71], the efflux ratio at 1 h, 10 μM is more than 3 under setting [1] and 1 to 2 under setting [2]. Moreover, the Papp A→B at 1 h, 10 μM (MDR1-MDCK cells) was more than 20 ×10⁻⁶ cm/s.

Take `O=C(N1CC2(C1)CN(c1cnc(F)cn1)C2)N1CCOc2cc(Cl)ccc21` [1-18]: the efflux ratio at 1 h, 10 μM by setting is: under setting [1], less than 1; under setting [2], less than 1. The Papp A→B at 1 h, 10 μM (MDR1-MDCK cells) was more than 20 ×10⁻⁶ cm/s.

Regarding `CC1COc2cc(Cl)ccc2N1C(=O)N1CC2(C1)CN(c1ncccc1C#N)C2` (stereo not drawn) [21-2], the efflux ratio at 1 h, 10 μM by setting is: under setting [1], 1 to 2; under setting [2], 1 to 2. Also, the Papp A→B at 1 h, 10 μM (MDR1-MDCK cells) was more than 20 ×10⁻⁶ cm/s.
